This is an account of results in patent US11306071B2, “Heterocyclic compounds as adenosine antagonists” (Nuvation Bio Inc., priority 2019, dated 2022).

Assay [1] has as its target adenosine A2a (human) membrane (Homo sapiens (Human), UniProt P29274). Briefly: A2A adenosine receptor radioligand binding assay ([3H] CGS-21680). The following applies: radioligand [3H] CGS-21680 6 nM. How it is done: A second A2A adenosine receptor radioligand binding assay protocol was used. The protocol used adenosine A2a (human) membrane (PerkinElmer RBHA2AM400UA) at a concentration of 5 μg/well/100 μl and the radioligand [3H] CGS-21680 (Cat No. PerkinElmer-NET1021250UC) at a final concentration of 6 nM. Testing compounds were diluted with DMSO to make 8-point 4-fold serial dilution, starting at 0.2 mM. CGS-15943 was the reference compound. 1 μl of compounds/high control/low control was transferred to the assay plate according to a plate map, followed by 100 μl of membrane stocks and 100 μl of radioligand, in assay buffer (50 mM Tris-HCl, 10 mM MgCl2, 1 mM EDTA, pH 7.4). The plate was sealed and incubated at RT for 2 hours. Unifilter-96 GF/C filter plates (Perkin Elmer Cat #6005174) were soaked with 50 μl of 0.3% PEI per well for at least 0.5 hour at room temperature. When the binding assays were completed, the reaction mixtures were filtered through GF/C plates using Perkin Elmer Filtermate Harvester, and each plate washed 4 times with cold wash buffer (50 mM Tris-HCl, 154 mM NaCl, pH 7.4). The filter plates were dried for 1 hour at 50 degrees. After drying, the bottom of the filter plate wells was sealed, 50 μl of Perkin Elmer Microscint 20 cocktail was added, and the top of the filter plate was sealed. ^3H trapped on the filter was counted using Perkin Elmer MicroBeta2 Reader. The data were analyzed with GraphPad Prism 5 to obtain binding IC50 values. The “Inhibition [% Control]” was calculated using the equation: % Inh=(1-Background subtracted Assay value/Background subtracted HC value)*100, where HC is high control.

Assay [2] has as its target HEK-293 cells expressing human recombinant adenosine A1 receptor (Homo sapiens (Human), UniProt P30542). Briefly: cAMP assay (Assay 2), A1 receptor. The format is cell-based. As to the method: (§1) The functional activity of compounds was tested using Assay 2, below, to detect the presence of cAMP. Assay 1 is an alternative assay for this purpose. Activation of G-protein coupled receptors (such as A2A) results in activation of adenylyl cyclase which converts ATP into cAMP which is used as a downstream signaling molecule. Therefore, molecules which act as GPCR (or specifically A2A receptor) antagonists cause a decrease in intracellular cAMP concentration.
(§2) Assay 2 (Table B2): This assay used HEK-293 cells expressing human recombinant adenosine A2A receptor (or, alternatively, A1 receptor) that were grown prior to the test in media without antibiotic. 100 nL of test articles at 100x of final concentration were transferred to assay plate by Echo. Cells were washed twice with 5 mL of PBS and 10 μL of cells were mixed with 5 mL PBS. After aspirating the PBS and adding 1.5 mL versine, cells were incubated at 37° C. for 2-5 min. After centrifugation, 4 mL of medium was added and adjusted cell density to 5,000 cells/well with Stimulation Buffer. 10 μL of cells were aliquoted to the assay plate, centrifuged at 1000 rpm for 1 minute, and incubated for 60 minutes at room temperature. 5 μL 4× Eu-cAMP tracer solution and 5 μL 4× Ulight™-anti-cAMP solution were added to assay plate, followed by centrifugation and 60-minute incubation at room temperature. Plates were read on EnVision.
(In general: cAMP levels reflect the balance of adenylyl cyclase and phosphodiesterase activity.)

The target of assay [3] is adenosine A1 (human) membrane (Homo sapiens (Human), UniProt P30542). Briefly: A1 adenosine receptor radioligand binding assay ([3H] DPCPX). Particulars: 200 nM compound; radioligand [3H] DPCPX 1 nM. How it is done:
A second A1 adenosine receptor radioligand binding assay protocol was used. The protocol used adenosine A1 (human) membrane (PerkinElmer ES-010-M400UA) at a concentration of 2.5 μg/well/100 μl and the radioligand [3H] DPCPX (Cat No. PerkinElmer-NET974250UC) at a final concentration of 1 nM. Testing compounds were tested at a final concentration of 200 nM. CGS-15943, the reference compound, was tested in an 8-point 4-fold serial dilution, starting at a top concentration of 1 μM. 1 μl of compounds/high control/low control was transferred to the assay plate according to a plate map, followed by 100 μl of membrane stocks and 100 μl of radioligand, in assay buffer (25 mM HEPES, 5 mM MgCl2, 1 mM CaCl2, 100 mM NaCl, pH 7.4). The plate was sealed and incubated at RT for 1 hour. Unifilter-96 GF/C filter plates (Perkin Elmer Cat #6005174) were soaked with 50 μl of 0.3% PEI per well for at least 0.5 hour at room temperature. When the binding assays were completed, the reaction mixtures were filtered through GF/C plates using Perkin Elmer Filtermate Harvester, and each plate washed 4 times with cold wash buffer (25 mM HEPES, 5 mM MgCl2, 1 mM CaCl2, 100 mM NaCl, pH 7.4). The filter plates were dried for 1 hour at 50 degrees. After drying, the bottom of the filter plate wells was sealed, 50 μl of Perkin Elmer Microscint 20 cocktail was added, and the top of the filter plate was sealed. ^3H trapped on the filter was counted using Perkin Elmer MicroBeta2 Reader. The data were analyzed with GraphPad Prism 5 to obtain binding IC50 values for the reference compound. The “Inhibition [% Control]” was calculated using the equation: % Inh=(1-Background subtracted Assay value/Background subtracted HC value)*100, where HC is high control.

Assay [4] addresses HEK-293 cells expressing human recombinant adenosine A2A receptor (Homo sapiens (Human), UniProt P29274). Description: cAMP assay (Assay 2), A2A receptor. The format is cell-based. As to the method: as §1, §2

HEK-293 cells expressing human recombinant adenosine A2A receptor, sequence (P29274 whole entry): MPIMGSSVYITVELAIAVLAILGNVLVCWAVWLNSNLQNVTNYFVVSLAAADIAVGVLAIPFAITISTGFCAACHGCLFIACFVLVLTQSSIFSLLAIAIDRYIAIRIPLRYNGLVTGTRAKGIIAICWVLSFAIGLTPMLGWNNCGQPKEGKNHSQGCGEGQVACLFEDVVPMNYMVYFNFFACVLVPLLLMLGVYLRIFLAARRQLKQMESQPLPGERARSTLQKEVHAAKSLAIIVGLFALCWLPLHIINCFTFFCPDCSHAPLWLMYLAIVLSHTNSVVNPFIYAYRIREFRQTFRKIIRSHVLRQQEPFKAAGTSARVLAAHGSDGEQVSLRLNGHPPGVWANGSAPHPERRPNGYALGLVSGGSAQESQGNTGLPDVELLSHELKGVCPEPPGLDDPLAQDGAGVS
adenosine A2a (human) membrane, sequence (P29274 whole entry): as above
HEK-293 cells expressing human recombinant adenosine A1 receptor, sequence (P30542 whole entry): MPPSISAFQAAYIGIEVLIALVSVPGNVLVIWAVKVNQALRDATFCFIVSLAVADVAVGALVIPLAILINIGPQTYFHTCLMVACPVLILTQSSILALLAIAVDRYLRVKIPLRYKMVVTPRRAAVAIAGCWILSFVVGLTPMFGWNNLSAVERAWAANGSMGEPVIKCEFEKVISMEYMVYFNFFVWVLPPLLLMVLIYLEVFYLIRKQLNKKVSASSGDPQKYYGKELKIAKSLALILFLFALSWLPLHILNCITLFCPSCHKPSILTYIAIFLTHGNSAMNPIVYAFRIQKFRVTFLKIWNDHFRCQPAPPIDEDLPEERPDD
adenosine A1 (human) membrane, sequence (P30542 whole entry): as above

`CC(NC(=O)c1nc(-c2ccc3ncccc3c2)c(-c2ccccc2)nc1N)c1ccccn1` (centres unmarked) [compound 73, 3-amino-5-phenyl-N-(1-(pyridin-2-yl)ethyl)-6-(quinolin-6-yl)pyrazine-2-carboxamide]: the values for the IC50 in assay [1], in assay [2] and in assay [4] were 0.0031 µM, 0.403 µM and 0.053 µM, respectively. In assay [3], the inhibition (usually the percentage by which the read-out fell short of the control) at 0.2 µM came out at 61%.
Taken in the same sequence, the figures for `C[C@H](NC(=O)c1nc(-c2ccc3ncccc3c2)c(-c2ccccc2)nc1N)c1ccccn1` [compound 75, (S)-3-amino-5-phenyl-N-(1-(pyridin-2-yl)ethyl)-6-(quinolin-6-yl)pyrazine-2-carboxamide] were 0.0025 µM, 0.219 µM, 0.025 µM and 63%.
The like results for `C[C@@H](NC(=O)c1nc(-c2ccc3ncccc3c2)c(-c2ccccc2)nc1N)c1ccccn1` [compound 76, (R)-3-amino-5-phenyl-N-(1-(pyridin-2-yl)ethyl)-6-(quinolin-6-yl)pyrazine-2-carboxamide] were, in that order, 0.0034 µM, 0.804 µM, 0.024 µM and 45%.
Take `N#Cc1cccc(CNC(=O)c2nc(-c3ccc4ncccc4c3)c(-c3ccccc3)nc2N)n1` [compound 98, 3-amino-N-((6-cyanopyridin-2-yl)methyl)-5-phenyl-6-(quinolin-6-yl)pyrazine-2-carboxamide]: the IC50 – broadly, the concentration that inhibits the measured activity by half – in assay [1] turned out to be 0.0008 µM; in assay [2] it was 0.011 µM; in assay [4], 0.018 µM. In assay [3], this compound had an inhibition at 0.2 µM of 92%.
Taken in the same sequence, the figures for `CC(C)(NC(=O)c1nc(-c2ccc3ncccc3c2)c(-c2ccccc2)nc1N)c1ccccn1` [compound 108, 3-amino-5-phenyl-N-(2-(pyridin-2-yl)propan-2-yl)-6-(quinolin-6-yl)pyrazine-2-carboxamide] were 0.0013 µM, 0.326 µM, 0.055 µM and 47%.
